The numbers were not newly measured in patent publication US20080181972A1, “Compositions and Methods for Maintaining, Strengthening, Improving, or Promoting Eye Health” (priority 2007, published 2008), which cites them from elsewhere.

Some results are limits rather than exact numbers.

One series concerns intracellular GSH. Conditions: in vitro (cell culture).
For series [1], the system named is intracellular GSH in lung, liver and kidney cells. Conditions: in vivo, liver and kidney cells of mice injected daily with 4, 8, or 16 mg/kg for 11 days.
In the next series the test system is AGE from Amadori adducts. Conditions: in vitro and in vivo studies.
The test system of series [2] is human endothelial cell cultures.
The conditions of series [3]: in vivo.
For a further series, the system named is H2O2 formation. Conditions: both in vitro and in vivo.
For series [4] the following is noted: phytoestrogenic isoflavones.
A further series concerns LDL. Conditions: conjugated diene, lipid peroxides and TBARS after cupric sulfate.
Series [5] relates to bovine aortic endothelial cell- and human endothelial cell-mediated LDL oxidation. Conditions: bovine aortic and human endothelial cells.
For series [6] the following is noted: long-term feeding to rats, 1% in drinking water.
The conditions of series [7]: short- and long-term studies.

With `CC(=O)Oc1c(C)c(C)c2c(c1C)CC[C@@](C)(CCC[C@H](C)CCC[C@H](C)CCCC(C)C)O2` (racemic) [DL-α-tocopheryl acetate], the “level at which no adverse effects have been observed” value (in vivo) was no more than 800 mg.

For `O=C(O)CCCCC1CCSS1` (stereo not drawn) [ALA, Alpha-lipoic acid], the “increase of intracellular GSH levels” value (with intracellular GSH; in series [1]) was 30-70% in each case. In the case of `CC1=C(/C=C/C(C)=C/C=C/C(C)=C/C=C/C=C(C)/C=C/C=C(C)/C=C/C2=C(C)C(=O)[C@@H](O)CC2(C)C)C(C)(C)C[C@H](O)C1=O` [Astaxanthin], for the setting “daily dose of 19.25 mg over 29 days, healthy humans”, the ill effects result is “no ill effects”.

With `Cc1ncc(CO)c(CN)c1O` [PM, pyridoxamine], in the series on AGE from Amadori adducts, the “inhibition of the formation of AGE from Amadori adducts” value was “potent inhibitor”.

Turning to `C/C(=C(\CCOP(=O)(O)O)SC(=O)c1ccccc1)N(C=O)Cc1cnc(C)nc1N` [benfotiamine], the AGE generation result in series [2] is given as “effective in reducing AGE generation”. The “AGE accumulation in the retina” value in the series with retina of diabetic rats is listed as “preventing AGE accumulation”.

Consider `CC1=C(/C=C/C(C)=C/C=C/C(C)=C/C=C/C=C(C)/C=C/C=C(C)/C=C/C2=C(C)CCCC2(C)C)C(C)(C)CCC1` [beta-carotene, Beta-carotene], for which, in series [3], the “efficiency of conversion to vitamin A in the body” value was “approximately 50%”. Moreover, the “dosage level with no observed adverse effects” value (healthy, non-smokers) is on record as no more than 25 mg per day. For the same molecule, where the note is “individuals who receive 20 mg/day”, the adverse effects observed entry is “increased risk of fatal coronary heart attacks in men with previous myocardial infarction and an increased risk of lung cancer among male smokers”. For `O=c1c(-c2ccc(O)cc2)coc2cc(O)cc(O)c12` [genistein], the “tumor promoter-induced H2O2 formation” value in the series with H2O2 formation is given as “strongly inhibited”. The “order of reactivity in scavenging the radical in the aqueous phase” value in series [4] is reported as “genistein>daidzein=genistin approximately equal to biochanin A=daidzein>formononentin approximately equal to onionin”. In addition, in the series on LDL, the “order of ability to reduce LDL oxidizability” value is “quercetine>morin>pelargonidin>genistein>naringin>apigenin”. In addition, the “endothelial cell-mediated LDL oxidation” value in series [5] is given as “inhibited”. In the case of `NC(=O)c1cccnc1` [niacinamide], in [6], the carcinogenic effects result is “No carcinogenic effects”. In addition, the toxicity result in [7] is reported as “low toxicity”. For `Cc1ncc(C[n+]2csc(CCO)c2C)c(N)n1` [thiamine], in series [2], the AGE generation entry was “effective in reducing AGE generation”. The “AGE accumulation in the retina” value in the series on retina of diabetic rats is on record as “preventing AGE accumulation”. For the molecule `O=C1O[C@H]([C@@H](O)CO)C(O)=C1O` [vitamin C, Ascorbic acid], the “daily intake without any known adverse effects” value (consumed daily) is given as ≥ 1,000 mg.
